The results in this text go back to ChEMBL document CHEMBL1151329, “New cyclic peroxides from the Philippine sponge Plakinastrella sp” (J Nat Prod, 1998).

Activity calls are given as the source filed them. No cut-off for these calls is given here.

The assay deals with Candida albicans. Briefly: Antifungal activity against Candida albicans. Format: functional, organism-based.
As for `CC/C=C\C/C=C/C=C/CCCCCC[C@@]1(C)C[C@](C)(CC(=O)O)OO1` (relative stereo), the outcome was inactive.
The result for `C[C@@]1(CCCCCCCCCCc2ccccc2)C[C@]2(C)OC(=O)C[C@@H]2OO1` reads “inactive”; that for `CC/C=C\C/C=C/C=C/CCCCCC[C@@]1(C)C[C@](C)(CC(=O)OC)OO1` (relative stereo), “inactive”; that for `CCC(C)CCCCCC/C=C\CC/C=C\CCCC(=O)OC` (centres undefined), “inactive”.
